Measurements taken from patent publication US20110206685A1, “SCREENING ASSAYS FOR INHIBITORS OF A STAPHYLOCOCCUS AUREUS SIDEROPHORE” (priority 2004, published 2011).

Tests used:
Assay type in all cases: cell-based, Staphylococcus aureus
sbnB::Tet mutant = conditions: iron-restricted media / serum
Description: SbnB encodes a putative ornithine cyclodeaminase and may work in concert with SbnA to produce L-2,3-diaminopropionic acid, a likely precursor for staphylobactin. Ornithine cyclodeaminases mediate the deamination of ornithine and cyclization to proline and depended on NAD+. A mutation in sbnB was created by insertion of a Tet cassette. […] While proline is unlikely to be a siderophore precursor, ammonia may be a desired product for staphylobactin biosynthesis. […] Further, we observed in a mouse kidney abscess experiment, sbnB deficient strains were compromised for virulence (data not shown, n=7 mice).

S. aureus RN6390 = assay: Siderophore plate bioassay (promotion of iron-restricted growth); conditions: HPLC-isolated peak from culture supernatant of RN6390 fur::Km; TMS medium with 20 μM EDDHA
Description: The ability of siderophores to promote the iron-restricted growth of S. aureus was assessed using siderophore plate bioassays, performed as previously described (Sebulsky et al., (2000) J. Bacteriol. 182:4394-4400). Briefly, S. aureus RN6390 was incorporated into solid TMS medium (1.4×10^4 cells/ml) containing 20 μM EDDHA. The ability of purified siderophores to promote growth of S. aureus was assessed after incubation of plates for 36 hours at 37° C.

[1] = tested on: sbnD mutant and wild type strains; assay: MIC comparison of sbnD mutant and wild type strains; conditions: sbnD::Km mutant versus wild type
Description: SbnD encodes a putative multi-drug efflux pump. A mutation in sbnD was created by insertion of a Km cassette.

Molecule: O=C(O)[C@@H]1CCCN1 [proline]
- rescue of the iron-restricted growth phenotype of the sbnB mutant by added compound (sbnB::Tet mutant): does not bypass the sbnB mutation

Molecule: staphylobactin
- biological activity in siderophore plate bioassays (promotion of iron-restricted growth of S. aureus) (S. aureus RN6390): retained biological activity

Molecule: CCn1cc(C(=O)O)c(=O)c2cc(F)c(N3CCNCC3)cc21 [norfloxacin]
- difference in MIC (minimum inhibitory concentration) values between sbnD mutant and wild type strains [1]: No difference

Molecule: CCn1cc(C(=O)O)c(=O)c2ccc(C)nc21 [nalidixic acid]
- difference in MIC (minimum inhibitory concentration) values between sbnD mutant and wild type strains [1]: No difference

Molecule: NCC(N)C(=O)O (centres unmarked) [diaminopropionic acid]
- rescue of the iron-restricted growth phenotype of the sbnB mutant by added compound (sbnB::Tet mutant): can be overcome
